Reference: the NIST ThermoML archive (doi:10.1021/je300199a)
Values joined by “and” are separate entries in the source; they are usually repeats but may differ in a detail not shown here. Equal entries are not always repeated. Numbers after ± are expanded uncertainties.

Settings: Calculated from knudsen effusion weight loss

[Cu] [copper]
vapor or sublimation pressure (1211 K, Crystal): 3.2e-06 ± 1e-06 kPa
vapor or sublimation pressure (1229 K, Crystal): 2.6e-06 ± 8e-07 kPa
vapor or sublimation pressure (1249 K, Crystal): 6.5e-06 ± 2e-06 kPa and 5.9e-06 ± 1.8e-06 kPa
vapor or sublimation pressure (1267 K, Crystal): 1e-05 ± 2e-06 kPa
vapor or sublimation pressure (1281 K, Crystal): 1.4e-05 ± 4e-06 kPa and 1.5e-05 ± 4e-06 kPa
vapor or sublimation pressure (1300 K, Crystal): 2.1e-05 ± 6e-06 kPa and 1.9e-05 ± 6e-06 kPa
vapor or sublimation pressure (1314 K, Crystal): 2.8e-05 ± 8e-06 kPa and 2.7e-05 ± 8e-06 kPa
vapor or sublimation pressure (1329 K, Crystal): 4.5e-05 ± 1.4e-05 kPa and 3.8e-05 ± 1.2e-05 kPa
vapor or sublimation pressure (1343 K, Crystal): 5.4e-05 ± 1.6e-05 kPa and 5.1e-05 ± 1.6e-05 kPa
vapor or sublimation pressure (1356 K, Crystal): 7e-05 ± 2e-05 kPa
vapor or sublimation pressure (1370 K, Liquid): 9e-05 ± 2e-05 kPa
vapor or sublimation pressure (1379 K, Liquid): 0.00013 ± 4e-05 kPa
vapor or sublimation pressure (1384 K, Liquid): 0.00012 ± 4e-05 kPa
vapor or sublimation pressure (1388 K, Liquid): 0.00014 ± 4e-05 kPa
vapor or sublimation pressure (1397 K, Liquid): 0.00015 ± 4e-05 kPa
vapor or sublimation pressure (1409 K, Liquid): 0.00018 ± 6e-05 kPa and 0.00019 ± 6e-05 kPa
vapor or sublimation pressure (1421 K, Liquid): 0.00023 ± 6e-05 kPa
vapor or sublimation pressure (1432 K, Liquid): 0.00027 ± 8e-05 kPa and 0.00028 ± 8e-05 kPa
vapor or sublimation pressure (1434 K, Liquid): 0.00033 ± 0.0001 kPa
vapor or sublimation pressure (1443 K, Liquid): 0.00034 ± 0.0001 kPa
vapor or sublimation pressure (1454 K, Liquid): 0.0004 ± 0.00012 kPa and 0.00041 ± 0.00012 kPa
vapor or sublimation pressure (1463 K, Liquid): 0.00047 ± 0.00014 kPa and 0.00049 ± 0.00014 kPa
vapor or sublimation pressure (1474 K, Liquid): 0.00055 ± 0.00016 kPa and 0.00057 ± 0.00018 kPa
vapor or sublimation pressure (1484 K, Liquid): 0.00065 ± 0.0002 kPa and 0.0007 ± 0.0002 kPa
vapor or sublimation pressure (1494 K, Liquid): 0.0007 ± 0.0002 kPa and 0.0008 ± 0.0002 kPa
vapor or sublimation pressure (1503 K, Liquid): 0.0008 ± 0.0002 kPa and 0.0009 ± 0.0002 kPa
vapor or sublimation pressure (1512 K, Liquid): 0.0008 ± 0.0002 kPa and 0.0011 ± 0.0004 kPa
vapor or sublimation pressure (1522 K, Liquid): 0.0013 ± 0.0004 kPa and 0.0012 ± 0.0004 kPa
vapor or sublimation pressure (1530 K, Liquid): 0.0015 ± 0.0004 kPa and 0.0014 ± 0.0004 kPa
vapor or sublimation pressure (1539 K, Liquid): 0.0016 ± 0.0004 kPa
vapor or sublimation pressure (1547 K, Liquid): 0.0018 ± 0.0006 kPa and 0.0019 ± 0.0006 kPa
vapor or sublimation pressure (1555 K, Liquid): 0.0021 ± 0.0006 kPa
vapor or sublimation pressure (1565 K, Liquid): 0.0023 ± 0.0006 kPa and 0.0024 ± 0.0008 kPa and 0.0027 ± 0.0008 kPa
vapor or sublimation pressure (1572 K, Liquid): 0.0026 ± 0.0008 kPa and 0.0028 ± 0.0008 kPa and 0.0031 ± 0.001 kPa
vapor or sublimation pressure (1581 K, Liquid): 0.0029 ± 0.0008 kPa and 0.0031 ± 0.001 kPa and 0.0035 ± 0.001 kPa
vapor or sublimation pressure (1588 K, Liquid): 0.0031 ± 0.001 kPa and 0.0036 ± 0.0011 kPa and 0.004 ± 0.0013 kPa
vapor or sublimation pressure (1596 K, Liquid): 0.0038 ± 0.0013 kPa and 0.0041 ± 0.0013 kPa and 0.0045 ± 0.0015 kPa
vapor or sublimation pressure (1604 K, Liquid): 0.0039 ± 0.0013 kPa and 0.0046 ± 0.0015 kPa and 0.005 ± 0.0015 kPa
vapor or sublimation pressure (1611 K, Liquid): 0.0042 ± 0.0013 kPa and 0.0052 ± 0.0017 kPa and 0.0055 ± 0.0017 kPa
vapor or sublimation pressure (1619 K, Liquid): 0.0046 ± 0.0015 kPa and 0.0058 ± 0.0019 kPa and 0.006 ± 0.0019 kPa
vapor or sublimation pressure (1628 K, Liquid): 0.005 ± 0.0017 kPa and 0.0066 ± 0.0021 kPa

O=[Si] [silicon monooxide]
vapor or sublimation pressure (1211 K, Crystal): 3e-06 ± 4e-06 kPa
vapor or sublimation pressure (1229 K, Crystal): 1.6e-06 ± 1.4e-06 kPa
vapor or sublimation pressure (1249 K, Crystal): 8e-06 ± 6e-06 kPa
vapor or sublimation pressure (1267 K, Crystal): 1.3e-05 ± 1e-05 kPa
vapor or sublimation pressure (1281 K, Crystal): 2.2e-05 ± 1.8e-05 kPa
vapor or sublimation pressure (1300 K, Crystal): 4e-05 ± 4e-05 kPa
vapor or sublimation pressure (1314 K, Crystal): 6e-05 ± 4e-05 kPa
vapor or sublimation pressure (1329 K, Crystal): 9e-05 ± 6e-05 kPa
vapor or sublimation pressure (1343 K, Crystal): 0.00013 ± 0.0001 kPa
vapor or sublimation pressure (1356 K, Crystal): 0.0002 ± 0.00014 kPa
vapor or sublimation pressure (1370 K, Crystal): 0.00028 ± 0.0002 kPa
vapor or sublimation pressure (1384 K, Crystal): 0.0004 ± 0.0002 kPa
vapor or sublimation pressure (1397 K, Crystal): 0.0005 ± 0.0004 kPa
vapor or sublimation pressure (1409 K, Crystal): 0.0007 ± 0.0004 kPa
vapor or sublimation pressure (1421 K, Crystal): 0.001 ± 0.0006 kPa
vapor or sublimation pressure (1432 K, Crystal): 0.0013 ± 0.0008 kPa
vapor or sublimation pressure (1443 K, Crystal): 0.0017 ± 0.001 kPa
vapor or sublimation pressure (1454 K, Crystal): 0.0023 ± 0.0012 kPa
vapor or sublimation pressure (1463 K, Crystal): 0.0029 ± 0.0016 kPa
vapor or sublimation pressure (1474 K, Crystal): 0.0036 ± 0.002 kPa
vapor or sublimation pressure (1484 K, Crystal): 0.005 ± 0.002 kPa
vapor or sublimation pressure (1494 K, Crystal): 0.006 ± 0.002 kPa
vapor or sublimation pressure (1503 K, Crystal): 0.007 ± 0.004 kPa
vapor or sublimation pressure (1512 K, Crystal): 0.009 ± 0.004 kPa
vapor or sublimation pressure (1522 K, Crystal): 0.011 ± 0.004 kPa
vapor or sublimation pressure (1530 K, Crystal): 0.013 ± 0.006 kPa
vapor or sublimation pressure (1539 K, Crystal): 0.015 ± 0.006 kPa
vapor or sublimation pressure (1547 K, Crystal): 0.018 ± 0.008 kPa
vapor or sublimation pressure (1555 K, Crystal): 0.021 ± 0.008 kPa
vapor or sublimation pressure (1565 K, Crystal): 0.024 ± 0.01 kPa
